The text below walks through data of ChEMBL document CHEMBL3352529 (J Med Chem, 2014).

pIC50, pKi: −log10 of the molar value. A value given as a limit tells only on which side of the number the result lay.

For assay [1], the target named is T1, Neuraminidase (Influenza A virus, UniProt A5Z252). Put plainly: Inhibition of Influenza A virus A/chicken/china/1220/2012(H5N1) Neuraminidase N1.
The target of assay [2] is T2, Neuraminidase (Influenza A virus, UniProt B4URF0). Also noted: species or system A/chicken/china/415/2013(H9N2).
T2 sequence (B4URF0 whole entry): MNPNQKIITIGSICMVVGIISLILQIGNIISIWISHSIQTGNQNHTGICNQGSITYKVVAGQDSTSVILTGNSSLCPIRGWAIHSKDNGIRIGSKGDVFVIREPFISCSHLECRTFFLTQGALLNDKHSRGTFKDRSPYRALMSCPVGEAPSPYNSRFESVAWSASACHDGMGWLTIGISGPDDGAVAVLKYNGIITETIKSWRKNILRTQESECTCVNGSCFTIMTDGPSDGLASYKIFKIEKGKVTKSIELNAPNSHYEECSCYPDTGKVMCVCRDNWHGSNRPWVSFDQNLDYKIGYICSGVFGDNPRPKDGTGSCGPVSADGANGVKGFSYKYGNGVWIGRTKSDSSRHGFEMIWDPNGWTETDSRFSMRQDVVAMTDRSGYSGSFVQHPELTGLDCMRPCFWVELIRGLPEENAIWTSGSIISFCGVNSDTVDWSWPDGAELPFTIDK
In assay [3] the target is T1, Neuraminidase. Briefly: Binding affinity to Influenza A virus H5N1 Neuraminidase N1.
For assay [4], the target named is T1, Neuraminidase. Briefly: Binding affinity to Influenza A virus H3N2 Neuraminidase N1.
The target in assay [5] is T2, Neuraminidase. Put plainly: Binding affinity to Influenza A virus A/Paris/2590/2009 H1N1 Neuraminidase N1.
In assay [6] the target is T1, Neuraminidase. Put plainly: Inhibition of Influenza A virus H3N2 Neuraminidase N1.
Assay [7] has as its target T1, Neuraminidase. Put plainly: Inhibition of Influenza A virus H1N1 Neuraminidase N1.

Regarding `CCC(CC)O[C@@H]1C=C(C(=O)O)C[C@H](N(Cc2ccccc2)C(=N)N)[C@H]1NC(C)=O`, the pIC50 – broadly, the IC50 on a negative log10 scale, so that one unit is a factor of ten – in assay [1] is 5.93; in assay [2], 5.59.
On to `CCC(CC)O[C@@H]1C=C(C(=O)NO)C[C@H](NC(=N)N)[C@H]1NC(C)=O`, for which the pIC50 is under 7.00 in assay [1] and 6.70 in assay [2].
For `CCC(CC)O[C@@H]1C=C(C(=O)NO)C[C@H](N)[C@H]1NC(C)=O`, the figures for the pIC50 in assay [1] and in assay [2] were under 7.00 and 6.96, respectively.
Consider `CCC(CC)O[C@@H]1C=C(C(=O)O)C[C@H](N(Cc2cccs2)C(=N)N)[C@H]1NC(C)=O`, for which the pIC50 was 6.70 in assay [1] and 6.68 in assay [2].
In the same order, the values of `CCC(CC)O[C@@H]1C=C(C(=O)O)C[C@H](N(Cc2ccc(C(C)C)cc2)C(=N)N)[C@H]1NC(C)=O` are 5.84 and 5.63.
In the same order, the values of `CCC(CC)O[C@@H]1C=C(C(=O)O)C[C@H](N(Cc2ccccc2OC)C(=N)N)[C@H]1NC(C)=O` are 6.26 and 6.31.
The matching figures for `CCC(CC)O[C@@H]1C=C(C(=O)O)C[C@H](N(Cc2ccc(-c3ccccc3)cc2)C(=N)N)[C@H]1NC(C)=O`: 6.82 and 6.33.
As for `CCCN(C(=N)N)[C@H]1CC(C(=O)O)=C[C@@H](OC(CC)CC)[C@@H]1NC(C)=O`, the results for the pIC50 in assay [1] and in assay [2] were 6.17 and under 5.30, respectively.
In the same order, the values of `CCC(CC)O[C@@H]1C=C(C(=O)O)C[C@H](N(CC(C)C)C(=N)N)[C@H]1NC(C)=O` are 6.64 and under 5.30.
With `CCCCCN(C(=N)N)[C@H]1CC(C(=O)O)=C[C@@H](OC(CC)CC)[C@@H]1NC(C)=O`, the results for the pIC50 in assay [1] and in assay [2] were 6.11 and under 5.30, respectively.
As for `CCCCN(C(=N)N)[C@H]1CC(C(=O)O)=C[C@@H](OC(CC)CC)[C@@H]1NC(C)=O`, the pIC50 in assay [1] is 5.94; in assay [2] it was 5.83.
With `CCC(CC)O[C@@H]1C=C(C(=O)O)C[C@H](N(CCC(C)C)C(=N)N)[C@H]1NC(C)=O`, the values for the negative-log IC50 (pIC50) in assay [1] and in assay [2] were 6.43 and under 5.30, respectively.
For the compound `CCC(CC)CN(C(=N)N)[C@H]1CC(C(=O)O)=C[C@@H](OC(CC)CC)[C@@H]1NC(C)=O`, the pIC50 in assay [1] is 6.02; in assay [2] it was under 5.30.
The matching figures for `CCC(CC)O[C@@H]1C=C(C(=O)O)C[C@H](N(CCCc2ccccc2)C(=N)N)[C@H]1NC(C)=O`: 6.10 and under 5.30.
For the compound `CCC(CC)CN[C@H]1CC(C(=O)O)=C[C@@H](OC(CC)CC)[C@@H]1NC(C)=O`, the results for the pIC50 in assay [1] and in assay [2] were 7.57 and 6.52, respectively.
The matching figures for `CCCCN[C@H]1CC(C(=O)O)=C[C@@H](OC(CC)CC)[C@@H]1NC(C)=O`: 7.72 and 5.64.
In the same order, the values of `CCC(CC)O[C@@H]1C=C(C(=O)O)C[C@H](NCC(C)C)[C@H]1NC(C)=O` are 7.11 and under 5.30.
In the same order, the values of `CCC(CC)O[C@@H]1C=C(C(=O)O)C[C@H](NCc2cccs2)[C@H]1NC(C)=O` are 7.82 and 6.13.
Turning to `CCC(CC)O[C@@H]1C=C(C(=O)O)C[C@H](NCc2ccccc2)[C@H]1NC(C)=O`, the figures for the pIC50 in assay [1] and in assay [2] were 8.15 and 5.61, respectively.
With `CCC(CC)O[C@@H]1C=C(C(=O)O)C[C@H](NCc2ccccc2OC)[C@H]1NC(C)=O`, the pIC50 in assay [1] was 7.51; in assay [2] it was 5.79.
The matching figures for `CCC(CC)O[C@@H]1C=C(C(=O)O)C[C@H](NCc2ccccc2O)[C@H]1NC(C)=O`: 7.68 and under 5.30.
For the compound `CCC(CC)O[C@@H]1C=C(C(=O)O)C[C@H](NCc2ccccc2Cl)[C@H]1NC(C)=O`, the pIC50 in assay [1] is 8.44; in assay [2] it was 6.01.
In the same order, the values of `CCC(CC)O[C@@H]1C=C(C(=O)O)C[C@H](NCc2ccccc2Br)[C@H]1NC(C)=O` are 7.89 and 5.94.
Consider `CCC(CC)O[C@@H]1C=C(C(=O)O)C[C@H](NCc2ccccc2F)[C@H]1NC(C)=O`, for which the pIC50 is 8.00 in assay [1] and 5.57 in assay [2].
Turning to `CCC(CC)O[C@@H]1C=C(C(=O)O)C[C@H](NC/C=C/c2ccccc2)[C@H]1NC(C)=O`, the pIC50 in assay [1] is 7.85; in assay [2], 5.40.
In the same order, the values of `CCC(CC)O[C@@H]1C=C(C(=O)O)C[C@H](NCc2ccc(-c3ccccc3)cc2)[C@H]1NC(C)=O` are 8.72 and 5.92.
On to `CCC(CC)O[C@@H]1C=C(C(=O)O)C[C@H](NCCCc2ccccc2)[C@H]1NC(C)=O`, for which the figures for the pIC50 in assay [1] and in assay [2] were 7.49 and under 5.30, respectively.
In the same order, the values of `CCC(CC)O[C@@H]1C=C(C(=O)O)C[C@H](NCCCN)[C@H]1NC(C)=O` are under 7.00 and 6.02.
The matching figures for `CCC(CC)O[C@@H]1C=C(C(=O)O)C[C@H](NCc2ccccc2OCc2ccco2)[C@H]1NC(C)=O`: 7.23 and 5.82.
`C=CCOc1ccccc1CN[C@H]1CC(C(=O)O)=C[C@@H](OC(CC)CC)[C@@H]1NC(C)=O`: the pIC50 was 7.05 in assay [1] and 5.33 in assay [2].
For `CCC(CC)O[C@@H]1C=C(C(=O)O)C[C@H](NCc2ccc(-c3ccccc3)cc2Cl)[C@H]1NC(C)=O`, the pIC50 in assay [1] was 7.96; in assay [2], 5.69.
Consider `CCC(CC)O[C@@H]1C=C(C(=O)O)C[C@H](NCc2ccc(-c3ccccc3)cc2-c2ccccc2)[C@H]1NC(C)=O`, for which the pIC50 in assay [1] is 7.37; in assay [2], 8.49.
The matching figures for `CCC(CC)O[C@@H]1C=C(C(=O)O)C[C@H](NCc2ccc(-c3cccs3)cc2)[C@H]1NC(C)=O`: 8.68 and 5.45.
Take `CC(=O)N[C@H]1C([C@H](O)[C@H](O)CO)OC(C(=O)O)=C(C/C=C/c2ccc(C)cc2)[C@@H]1O` (stereo partly drawn): the pKi (as a rule, the negative decadic logarithm of the Ki, by convention in mol/L) was 5.14 in assay [3], 3.66 in assay [4] and 5.77 in assay [5].
For the compound `CC(=O)N[C@H]1[C@H]([C@H](O)[C@H](O)CO)OC(C(=O)O)=C[C@@H]1NC(=N)NC(=O)CSc1cccc2ccccc12`, the pIC50 in assay [6] was 7.60; in assay [7], 7.68.
`CCC(CC)O[C@@H]1C=C(C(=O)O)C[C@H](NC(=N)N)[C@H]1NC(C)=O`: the pIC50 in assay [1] is 8.16; in assay [2] it was 8.19.
